Entries after “also recorded” stand apart in the source; their conditions may differ. Like-named read-outs stand apart in the source and are kept apart here. No end group written: not given here.
Key:
[1] = test system: hairless rat skin burn wound; test: In vivo wound healing, TCA chemically induced skin burn wound
Excerpt: The hairless rat was chosen as a suitable test model. Female hairless rats of 100 to 150 grams weight and 8 to 12 weeks age were used in the study.
As an alternative, 70% trichloroacetic (TCA) dissolved in 70% ethanol was employed to induce the dermal erosion patches. […] As the chemical burn agent, the TCA treatment inflicted on the rats far less trauma and mortality than occurred with the Phenol model.
The experimental Protocol procedure steps were as follows: • 1. The animal was anesthetized (40 mg/kg Phenobarbital). • 2. Color photographs of the animal's back (with six separate peels) were taken before each treatment and daily thereafter. • 3. Rat skin surface was prepared by wiping with 70% ethanol. Filter paper discs (1.1 cm diameter) were soaked in 70% TCA/ethanol. • 4. The discs were placed on the back of the hairless rat for 30 minutes [6 disks providing for 2 control (no peptide treatment) disks and 4 disks for peels to receive peptide treatment.] • 5. After a 30 minute burn the discs were removed. Twenty four hours later, different peptide solutions (1500 ppm in saline) were applied to four peels, and saline was applied to the two control peels. • 6. Peptide solutions (and saline for the controls) were applied to the six wounds with a soft brush each day thereafter. • 7. It took approximately one month for the wounds to heal (complete skin closure with stabilized epidermis), after which the animal was sacrificed. • 8. The treated skin was harvested, section stained with trichrome, and mounted on slides.
The percentage of wound closure for each peel (six sites) was measured each day until the animal was sacrificed. The percentage closure was determined by measuring on the animal photographs the area of the remaining scab relative to the area of the initial scar after the burn. These measurements were made by digitizing and analyzing the peels using the Sigma Plot ProScan 4 program.
This provided a measure of the post-TCA burn treatment of the inflammatory response in each peel site.
The extent of epidermal thickening (hyperkeratosis) at each site was also determined by measurement with the Sigma Plot program applied to the stained section slides of the various wound areas and the normal untreated skin (control) surrounding the peels. At magnifications of 100× to 320×, the microphotographs of the color slides provided a powerful tool for such quantification of the extent of hyperkeratosis evident in each peel.
Treatment of the section slides with selective stains produced identifiable evidence of the presence of both leukocyte and fibroblast cells in the wound areas. This was also quantified by the Sigma Plot program.
The above described animal model and protocols were employed in the testing of approximately 20 of the peptides listed in Table 48 (and other peptides for comparison) as preferred FLAK peptides for wound healing.

[2] = test system: yeast (Saccharomyces cerevisiae); test: Antimicrobial assay I, yeast assay in RPMI 1640; assay type: cell-based; conditions: RPMI 1640 media
[3] = test system: human red blood cells (RBC); test: in vitro; assay type: cell-based; conditions: hemolytic assay, concentration at 50% hemolysis, 1 hour at 37° C.
BMKC = test: Anti-cancer assay, MTT, LD50; assay type: cell-based; conditions: BMKC cloned melanoma line, 24 hours with peptide
Excerpt: (§1) Numbers are LD50 values (μg/mL).

HeLaS3 = test: Anti-cancer assay, MTT, LD50; assay type: cell-based; conditions: 24 hours with peptide, cervical carcinoma
Excerpt: as §1

H1299 = test: Anti-cancer assay, MTT, LD50; assay type: cell-based; conditions: 24 hours with peptide, lung large cell carcinoma
Excerpt: as §1

PC3 = test: Anti-cancer assay, MTT, LD50; assay type: cell-based; conditions: 24 hours with peptide, prostate adenocarcinoma
Excerpt: as §1

MCF7 = test: Anti-cancer assay, MTT, LD50; assay type: cell-based; conditions: MCF7 breast adenocarcinoma line, MTT, 24 hours with peptide
Excerpt: as §1

SW480 = test: Anti-cancer assay, MTT, LD50; assay type: cell-based; conditions: SW480 colon adenocarcinoma line, 24 hours with peptide
Excerpt: as §1

[4] = test system: Pseudomonas aeruginosa ATCC 9027; test: Antimicrobial assay I, MIC by OD measurement; assay type: cell-based
[5] = test system: Staphylococcus aureus ATCC 6538; test: Antimicrobial assay I, MIC by OD measurement; assay type: cell-based; conditions: 37° C. for 24 hours, absorbance 620 nm
[6] = test system: Stapholococcus aureus ATCC 25923; test: Antimicrobial assay I, modified protocol (tryptic soy broth), MBC; conditions: minimum bactericidal concentration, Table 4
[7] = test system: Escherichia coli ATCC 25922; test: as above; conditions: minimum bactericidal concentration, Table 4
[8] = test system: Candida albicans ATCC 10231; test: Antimicrobial assay I, modified protocol (tryptic soy broth), MFC; conditions: minimum fungicidal concentration, Table 4
fungal = test: Presently preferred antifungal peptides, selected from the MIC/MBC data; assay type: cell-based; conditions: X = preferred
Excerpt: The peptide's “length” is the number of amino acid residues in the sequence.

in vitro [9] = assay type: cell-based, human; conditions: human, human red blood cells
in vitro [10] = conditions: human, WI38 normal lung fibroblast cells, WI-38 LD50, Table 26, valine substitution
[11] = test system: Pseudomonas aeruginosa ATCC 27853; test: Antimicrobial assay I, modified protocol (tryptic soy broth), MBC; conditions: minimum bactericidal concentration, Table 4
[12] = rat model, TCA burn treated by peptide
[13] = pH 7, Table 26, valine substitution, read-out: Hemolysis RBC LD50

Substance | MBC S. aur A.25923 [6] | MBC E. coli A.25922 [7] [µg/mL] | MFC Candida A.10231 [8] [µg/mL] | Anti-fungal (preferred peptide) (fungal) | MBC P. aerug A.27853 [11] | also measured
MPKEKVFLKIEKMGRNIRN-NH2 [P107, reference compound] | – | – | – | – | – | rate of wound closure ([1]; hairless rat, full wound closure at 26 days): small advantage in rate of wound closure over the other peptides and no peptide; ability to limit post-TCA burn inflammatory responses ([1]; hairless rat, peptide solutions 1500 ppm in saline, topical daily): superior in this respect; hyperkeratosis (epidermal thickening) ([1]; hairless rat, peptide solutions 1500 ppm in saline, topical daily, listed as SEQ ID NO:71): lowest evidence of hyperkeratosis (epidermal thickening); also recorded: substantially no hyperkeratosis as compared to the TCA burn untreated control; Epidermal thickening [1, 12]: 33 % of control (TCA only); Fibroblast cells in test area [1, 12]: 420 % of normal skin; Inflammatory response area [1, 12]: 0 % of healed scar; Leukocyte cells in test area [1, 12]: 400 % of normal skin; Wound closure ([1]; rat model, TCA burn treated by peptide, 26 days): 100 % of initial wound; yeast (MIC or MFC) [2]: > (> indicates greater than 200 μg/mL); WI38 LD50 (WI38; MTT, 24 hours with peptide, normal fibroblast line): > (> indicates greater than 1000); LD50 WI38 (WI38; WI38 normal lung fibroblast line, MTT, 24 hours with peptide): > (> indicates greater than 1000); LD50 [3]: > (> indicates greater than 1000); LD50 BMKC (BMKC): > (> indicates greater than 1000); HeLaS3 LD50 (HeLaS3): > (> indicates greater than 1000); H1299 LD50 (H1299): > (> indicates greater than 1000); PC3 LD50 (PC3): > (> indicates greater than 1000); LD50 MCF7 (MCF7): > (> indicates greater than 1000); LD50 SW480 (SW480): > (> indicates greater than 1000); paerug9027 (MIC) ([4]; 37° C. for 24 hours, absorbance 620 nm): > (> indicates greater than 200 μg/mL); staph6538 (MIC) [5]: > (> indicates greater than 200 μg/mL)
FALALKALKKL-NH2 [compound 165] | 25 µg/mL | 10 | 10 | X (Preferred antifungal peptides can be selected as having MIC or MBC values of less than or equal to about 25 μg/ml) | 25 µg/mL | HC50 at 1 h (in vitro [9]; [13]): 350 µg/mL; CC50 at 24 h (in vitro [10]): 850 µg/mL
FAKLLALALKKAL-NH2 [compound 97] | 25 µg/mL | 25 | 25 | X (Preferred antifungal peptides can be selected as having MIC or MBC values of less than or equal to about 25 μg/ml) | >50 µg/mL | –
VAKLLAKLAKKVL-NH2 [compound 154] | >250 µg/mL | 50 | 25 | X (Preferred antifungal peptides can be selected as having MIC or MBC values of less than or equal to about 25 μg/ml) | 100 µg/mL | WI38 LD50 (WI38; Table 27): 110 µg/mL; HC50 at 1 h (in vitro [9]; [13]): 870 µg/mL; HC50 at 1 h (in vitro [9]; pH 7, Table 27, read-out: Hemolysis (LD50)): 450 µg/mL; CC50 at 24 h (in vitro [10]): 110 µg/mL; P. aerug (MIC) [4]: 100 µg/mL
FAKKLAKKLAKAL-NH2 [compound 74] | >55 µg/mL | >55 | >55 | X (Preferred antifungal peptides can be selected as having MIC or MBC values of less than or equal to about 25 μg/ml) | 50 µg/mL | –
FAKLLAKLAK-NH2 [compound 123] | INACT | 40 | 25 | X (Preferred antifungal peptides can be selected as having MIC or MBC values of less than or equal to about 25 μg/ml) | INACT | –
FALALKALKKLKKALKKAL-NH2 [compound 27] | 8 µg/mL | 10 | >50 | X (Preferred antifungal peptides can be selected as having MIC or MBC values of less than or equal to about 25 μg/ml) | 8 µg/mL | –
FALALKALKKAL-NH2 [compound 144] | 25 µg/mL | 10 | 25 | X (Preferred antifungal peptides can be selected as having MIC or MBC values of less than or equal to about 25 μg/ml) | 25 µg/mL | –
FALKALKKAL-NH2 [compound 170] | 150 µg/mL | 25 | 25 | X (Preferred antifungal peptides can be selected as having MIC or MBC values of less than or equal to about 25 μg/ml) | >250 µg/mL | –
FKLAFKLAKKAFL-NH2 [compound 122] | 25 µg/mL | 30 | 15 | X (Preferred antifungal peptides can be selected as having MIC or MBC values of less than or equal to about 25 μg/ml) | 30 µg/mL | –

Reference: US20050209157A1, “Short bioactive peptides and methods for their use” (priority 2001, published 2005)
